Experiments:
Test in all cases: relative viability (nuclei count vs DMSO), 5 days (fraction); higher = more cells survive
[1] = compound: CC1=C(C=C(C=C1)NC(=O)C2=CC(=CC=C2)C(C)(C)C#N)NC3=CC4=C(C=C3)N=CN(C4=O)C [AZ628] + CC1(C)CCC(c2ccc(Cl)cc2)=C(CN2CCN(c3ccc(C(=O)NS(=O)(=O)c4ccc(N[C@H](CCN5CCOCC5)CSc5ccccc5)c(S(=O)(=O)C(F)(F)F)c4)cc3)CC2)C1 [Navitoclax] (partner 0.5 µM)
In short: (§1)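 A single step with final 0.05% Triton X-100, 1% formaldehyde and 1 ug/ml Hoechst fixed the cells and stained nuclei 5 days after treatment. Lung cancer cell lines in 1536-well plates had been treated by pin tool the day after seeding with one drug alone or a fixed anchor-drug dose plus five library-drug doses (not always all listed) in √10 steps, and nuclei were counted on 4× images. Relative viability is the ratio of nuclei in treated wells to nuclei in vehicle wells, taken as the median of duplicate plates.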

[2] = compound: CC1=C(C=C(C=C1)NC(=O)C2=CC(=CC=C2)C(C)(C)C#N)NC3=CC4=C(C=C3)N=CN(C4=O)C [AZ628] + COc1cc2c(Oc3ccc(NC(=O)C4(C(=O)Nc5ccc(F)cc5)CC4)cc3F)ccnc2cc1OCCCN1CCOCC1 [Foretinib] (partner 0.25 µM)
In short: as §1

[3] = compound: C[As](C)SC[C@H](NC(=O)CC[C@H](N)C(=O)O)C(=O)NCC(=O)O [Darinaparsin] + CC(=O)Nc1cccc(-n2c(=O)n(C3CC3)c(=O)c3c(Nc4ccc(I)cc4F)n(C)c(=O)c(C)c32)c1 [Trametinib] (partner 0.02 µM)
In short: as §1

[4] = compound: CC1=C(C=C(C=C1)NC(=O)C2=CC(=CC=C2)C(C)(C)C#N)NC3=CC4=C(C=C3)N=CN(C4=O)C [AZ628] + Cc1nc(NC(=O)N2CCC[C@H]2C(N)=O)sc1-c1ccnc(C(C)(C)C(F)(F)F)c1 [Alpelisib] (partner 2 µM)
In short: as §1

Cell Line | relative viability ([1]; first compound 0.08 µM) | relative viability ([1]; first compound 0.253 µM) | relative viability ([1]; first compound 0.8 µM) | relative viability ([1]; first compound 2.53 µM) | relative viability ([1]; first compound 8 µM) | relative viability ([2]; first compound 0.08 µM) | relative viability ([2]; first compound 0.253 µM) | relative viability ([2]; first compound 0.8 µM) | relative viability ([2]; first compound 2.53 µM) | relative viability ([2]; first compound 8 µM) | relative viability ([3]; first compound 0.08 µM) | relative viability ([3]; first compound 0.8 µM) | relative viability ([3]; first compound 2.53 µM) | relative viability ([3]; first compound 8 µM) | relative viability ([4]; first compound 0.08 µM) | relative viability ([4]; first compound 0.253 µM) | relative viability ([4]; first compound 0.8 µM) | relative viability ([4]; first compound 2.53 µM) | relative viability ([4]; first compound 8 µM)
NCI-H2009 | 1.11 | 0.94 | 0.98 | 1.04 | 0.455 | 1.02 | 0.861 | 0.704 | 0.573 | 0.355 | 0.283 | 0.246 | 0.196 | 0.27 | 1.01 | 0.895 | 0.692 | 1.03 | 0.34
EMC-BAC-2 | 1.26 | 1.09 | 1.07 | 1.06 | 1.05 | 0.91 | 0.87 | 0.871 | 0.901 | 0.877 | 0.909 | 0.802 | 1.01 | 0.887 | 0.704 | 0.645 | 0.681 | 0.608 | 0.706
NCI-H2023 | 1.01 | 1.02 | 1.03 | 0.996 | 0.762 | 0.886 | 0.824 | 0.826 | 0.724 | 0.607 | 0.728 | 0.557 | 0.629 | 0.579 | 0.653 | 0.558 | 0.617 | 0.688 | 0.324
RERF-LC-KJ | 1.04 | 0.816 | 0.755 | 0.861 | 0.745 | 0.885 | 0.922 | 0.898 | 0.899 | 0.893 | 0.933 | 0.933 | 0.93 | 0.817 | 0.721 | 0.912 | 0.749 | 0.719 | 0.597
